# Measurements taken from article PMC10266688 (PLOS ONE, 2023).
# How the values were obtained:
# [1] = system: GAPDH, RPN2 and USP14; assay: CETSA control proteins, SKOV3 cells; format: binding, human; conditions: SKOV3, 10 μM, 30 min
# Method: Cells were incubated in a thermal cycler (Biorad IQ5 Cycler) over a gradient of temperatures for 4 min, followed by incubation at 25°C for 3 min, then snap-frozen in liquid nitrogen and subjected to three freeze–thaw cycles. Samples were briefly vortexed and centrifuged at 16,000 x g for 20 min at 4°C. Cleared cell lysates were resolved in SDS–PAGE followed by immunoblotting for RPN13, GAPDH, RPN2 and USP14.
# Cellular Thermal Shift Assay (CETSA) assesses thermal stabilization of proteins upon ligand binding and is used extensively to detect drug interactions by implementing a thermal shift in the cellular context. The assay involves drug treatment of cells, heating to denature and precipitate proteins in a thermocycler with a specified gradient of temperatures, cell lysis by freeze/thaw cycles, and the separation of cell debris and aggregates from the soluble protein fraction by centrifugation. Whereas unbound proteins denature and precipitate at elevated temperatures, ligand-bound proteins remain in solution. The proportion of individual proteins remaining in solution can be detected by quantitative Western blotting. […]. There was no impact on other control proteins tested, including a house keeping protein (GAPDH) and proteasome subunits (RPN2 and USP14). […]
# Resuspended cells were aliquoted into PCR strips. […]
# [2] = system: HMW polyUb proteins in ES2 cells; assay: Western blot for polyubiquitinated proteins; conditions: by 12 h
# [3] = system: ID8-luc murine ovarian tumor; assay: ID8-Defb29/VegfA-luc syngeneic model, C57BL6 mice; format: in vivo, mouse
# Method: Female C57BL6 mice were inoculated IP with 3x10^5 ID8-Defb29/VegfA-luc cells in 100 μL PBS. At day 3, mice were imaged for basal level luminescence activity with a Xenogen IVIS 200 after IP injection with luciferin (0.3 mg in 100 μL water). Mice were randomized into groups and treated IP with compounds or vehicle (25% (w/v) β-Hydroxypropylcyclodextrin in water), and imaged again on days indicated.
# A-C) Female nude mice were inoculated IP with ES2-luc cells, a human ovarian cancer line expressing luciferase. […] The IP tumor tissue and electroporated normal muscle tissue, being spatially distinct, were identified with separate regions of interest (ROI) after simultaneous imaging with IVIS.
# Female C57BL6 mice (4–6 weeks) were challenged IP with ID8-luc tumor.
smiles,measurement,setting,value
N#Cc1ccc(/C=C2/C(=O)/C(=C/c3ccc(C#N)cc3)C23CCNCC3)cc1 [Up284],"thermal stabilization of GAPDH, RPN2 and USP14",[1],no impact
same,accumulation of HMW polyUb proteins,[2],profound accumulation
same,survival vs vehicle,"[3]; C57BL6, 20 mg/kg IP every third day for 4 weeks, p = 0.0004",significantly enhanced survival
same,ID8-luc tumor burden (bioluminescence) vs vehicle,"[3]; C57BL6, 20 mg/kg IP every third day, day 15, p = 0.0001",significantly lower tumor burden
